Assay results as given in ChEMBL document CHEMBL3507680, “University of Dundee, Gates Library screen for HepG2 cell viability”.

Test: Human HepG2 cell viability assay in 384 well format
Assay type: toxicity, cell-based
Parameters: dose 125 nL, time 70.5 hour; concentration not given beside the values
Conditions: HepG2 cells, read-out: Inhibition

Structure (SMILES)	cytotoxicity at 70.5 h [%]
Cc1n[nH]c(C)c1C1COCCN1C(=O)c1ccccc1 (stereo not drawn)	-8.5
Cc1cc(C(=O)N2CCc3ncnc(-c4cnn(C)c4)c3CC2)c(C)o1	-7.85
CNC(=O)N1CCC2(CC1)CNc1ccc(F)cc12	-5.44
O=C(OCc1cccc(F)c1)c1cccc(C(=O)N2CCCC2)n1	-1.08
CNc1cc(C2CCCN(S(=O)(=O)c3cn[nH]c3)C2)ccn1 (stereo not drawn)	-16.1
Cc1nc(CNc2nc(-c3ccco3)nc3c2CCNCC3)n[nH]1	-5.4
Cc1ncsc1CCC(=O)N1CCCC1c1cccnc1 (stereo not drawn)	-6.95
COCCN1CCN(Cc2ccc(C(C)=O)cc2)[C@H]2CS(=O)(=O)C[C@H]21	-5.05
CC(C)NC(=O)CN(C)C(=O)c1csc(Cc2ccccc2F)n1	-6.85
Cc1nc(N2CCCC2)nc(N2CCC(O)(C(=O)O)CC2)c1C	23.8
CC(=O)N1CCCC(c2ncncc2-c2ccncc2)C1 (stereo not drawn)	-7.71
COc1cc(OC)nc(N2CCC3(CC2)OCCCC3O)n1 (stereo not drawn)	-5.5
CCOCCC(=O)NC(c1noc(C)n1)c1ccccc1F (stereo not drawn)	-7.31
CCS(=O)(=O)N1CC[C@@H]2[C@H](CC1)N(Cc1cccnc1)CCS2(=O)=O	-4.2
CN(CC(=O)NCC(=O)Nc1ccc(F)cc1)Cc1cccs1	-20.9
Cc1nccc([C@H]2C[C@@H]3CCN(S(C)(=O)=O)C[C@H]3O2)n1	-0.795
Cc1n[nH]cc1CNc1ccc2c(c1)N(C(=O)OC(C)(C)C)CCC2	-5.44
CCc1ccc(C2COCCN2C(=O)Nc2ccc(C(N)=O)c(Cl)c2)o1 (stereo not drawn)	-2.09
CN(C)Cc1nnc2n1CCN(c1cnccn1)CC2	0.405
Cc1nc2cc(C(=O)N3C[C@@H](C(=O)O)[C@H](c4ccncc4)C3)ccc2[nH]1	-3.63
COc1cccc2[nH]c(C(=O)N3CCNCC3C(N)=O)cc12 (stereo not drawn)	10.8
Cc1cccc2[nH]c(COCC(=O)N3CCCn4cncc4C3)nc12	-6.34
CCn1nc(CNC(=O)C2CCCN(C(=O)COC)C2)c2ccccc21 (stereo not drawn)	-5.41

Structure (SMILES)	cytotoxicity at 70.5 h [%]
Cc1ccnc(NC(=O)c2[nH]nc(C(C)C)c2Br)c1	19.7
Cc1c(C(=O)NCCC(C)C)nnn1-c1cccc2c1CCN(C)C2	-5.25
O=C(CCc1ccccc1)NCC1CCN(Cc2ccccc2)CC1	0.0668
CC(c1ccc(Cl)cc1)N1CCN(CCCS(C)(=O)=O)CC1 (stereo not drawn)	1.48
N#CCCn1cnc2c(Br)cccc2c1=O	-14.7
CN1[C@@H](C(=O)NCC2CC2)C[C@H]2CN(Cc3cccc(C#N)c3)C[C@H]21	-13.8
Cc1ccc(-c2nc(C3CCN(C(=O)c4cnn(C)c4)CC3)no2)cn1	24.5
O=C1N(c2ccc(Br)cc2)Cc2n[nH]c(=O)n21	23.8
Cc1nc(C2(O)CCCNCC2)sc1CCOc1ccccc1F (stereo not drawn)	2.34
Cc1cccc(CS(=O)(=O)Cc2ccn(C)c(=O)c2)c1	-12.8
CNc1cccc(C2CCCN(C(=O)c3cnccn3)C2)n1 (stereo not drawn)	-0.4
Cc1nc(CC(=O)N2CCN(c3ccc(N(C)C)cc3)CC2)cs1	4.33
CN1CC2(CCCN(Cc3ccccc3OCC(=O)O)C2)OC1=O (stereo not drawn)	-2.41
COCC(=O)N1C[C@@H]2OCCN(Cc3c(C)noc3C)[C@@H]2C1	-11.4
CCS(=O)(=O)N1CCc2c(cccc2NCc2nc(C)c(C)o2)C1	19.1
CCOC1COC2(CCN(CC3CC3)CC2)C1 (stereo not drawn)	11.6
CC(C(=O)N1CCN(c2ccccc2Cl)CC1)n1cncn1 (stereo not drawn)	10.3
CC(=O)N1CCC(C)(c2nc(C)no2)CC1	-5
O=C(C1CCC1)N1CC[C@]2(O)CCN(Cc3ncccn3)C[C@@H]2C1	-9.87
COCCCN1CCC(c2nc3c([nH]2)CC(C)(C)CNC3=O)C1 (stereo not drawn)	-5.24
Cc1ccc(-c2c(C(=O)NC3CCN(C)CC3)csc2C)cc1	-9.95
CNC(=O)c1cccc(NC(=O)CN2CCN(S(C)(=O)=O)CC2)c1	-11.3
CCn1c(C2CCCN(C(=O)C(C)(C)OC)C2)nn(CCN(C)C)c1=O (stereo not drawn)	-1.55

Structure (SMILES)	cytotoxicity at 70.5 h [%]
CNc1ccc(CC2CCCN(Cc3c[nH]cn3)C2)nn1 (stereo not drawn)	-3.24
O=C(CN1CCc2c(ncn2C2CC2)C1)NC1CCN(C2CC2)CC1	16.5
CNc1cc(N2CCCC2CNCc2c[nH]nc2C(C)(C)C)ncn1 (stereo not drawn)	0.0673
CCc1nc2n(n1)CC(NCc1nc(-c3cccnc3)no1)CC2 (stereo not drawn)	-10.5
Cc1ccc(NC(=O)c2nc3c(s2)CCCN3C(C)C)cn1	-0.97
CCN1CCC(NC(=O)Cc2csc(C(C)(C)C)n2)CC1	24.8
Nc1ccnc(N2CCC(CCc3ccccc3)(C(=O)O)CC2)n1	14.5
CN1C(=O)CC(c2cnn(C)c2)C12CCN(C(=O)c1cccn1C)CC2 (stereo not drawn)	-13.1
COCC1CN(Cc2ccoc2)Cc2nnn(C)c21 (stereo not drawn)	-13.7
Cc1ccccc1CS(=O)(=O)Cc1nc(C2CC2)no1	-3.39
CC1Cc2cc(-c3cncn3CC(=O)NC(C)(C)C)ccc2N1C (stereo not drawn)	-7.08
Cc1nonc1NC(=O)C1SCCc2sccc21 (stereo not drawn)	32.5
Cc1noc(C)c1CN1CCC(c2ccnn2CCO)CC1	-5.98
Cc1nn(C)c(Cl)c1C(=O)NCc1cccnc1N1CCOCC1	-11.8
Cc1ccc(-c2nc(CNc3ccc(C(N)=O)c(C)c3)cs2)o1	-8.76
CC1CN(CC(=O)NCCc2ccncc2)Cc2ccccc2O1 (stereo not drawn)	-7.7
O=C(c1ccco1)N1C[C@H]2CCCN(CC3CC3)[C@H]2C1	-16.9
Cc1ccccc1C1(CNC(=O)c2ccc(S(C)(=O)=O)cc2)CC1	3.63
Cc1cnn(CCNCCCOc2ccc3c(c2)OCO3)c1	-0.972
CC(C)N1CCCC(C(=O)NCCc2csc(-c3ccncc3)n2)C1 (stereo not drawn)	22
CN1CSC[C@H]1C(=O)N1CCN(Cc2cccc(Cl)c2)CC1	-5.08
CCc1nc(-c2cncnc2C2CCNC2)no1 (stereo not drawn)	18
Cc1nc(N2CCN(C)CC2)ncc1C(=O)N1CC[C@](C)(O)[C@H](C)C1	-7.36

Structure (SMILES)	cytotoxicity at 70.5 h [%]
CC(C)=CCC1(C(=O)O)CCCN(c2ccnc(C)n2)C1 (stereo not drawn)	-3.8
O=C(NCc1ccccc1Cn1cncn1)N1CCCC1	-12.2
COc1cc(CC2CC(c3ccc4c(c3)OCO4)=NO2)cc2c1OCO2 (stereo not drawn)	-9.64
CCn1c(C2CCCN(C(=O)c3ccc[nH]3)C2)nn(CCN(C)C)c1=O (stereo not drawn)	4.96
CC(C)N1[C@H](CN(C)C)C[C@@H]2CN(c3ncc(F)cn3)CC[C@@H]21	6.71
CNC(=O)C(C)(C)N1CCC[C@H]1C(=O)NC1CC1	-9.14
CSC(C)CCN1CCCn2nc(CNC(=O)C3CCC3)cc2C1 (stereo not drawn)	0.861
COc1ccnc(N2CCN(C(=O)CN3CCOCC3)CC2)n1	8.59
O=C(O)c1cc2c(nc1NCC1CC1)CCN(C1CCOC1)CC2 (stereo not drawn)	-4.26
CCn1ncc2c1C(COC)N(C(=O)CCc1ccccc1)CC2 (stereo not drawn)	11.6
Cc1cnc(N2CCC3(CCN(Cc4csc(C)n4)C3=O)C2)nc1 (stereo not drawn)	-5.87
Cc1noc(C)c1CN1CCN(C(=O)C(C(C)C)n2cncn2)CC1 (stereo not drawn)	2.25
O=C(c1cnc2n1CCN(Cc1ccccc1)C2)N1CCCC1	-9.37
CCCN1CCN(c2nc(N)nc3c2nc(C)n3C)CC1	20.9
Fc1ccc(CC2CCN(Cc3nccs3)CC2)cc1	-7.34
COCc1nc(C(=O)NS(=O)(=O)c2cc(C)ccc2C)cs1	3.09
O=C1NC(c2ccccc2)=N[C@@]12CC[C@@H]1CN(S(=O)(=O)C3CC3)C[C@@H]12	2.16
Cc1nn(CCO)c(C)c1CNC1CCc2c(F)cccc21 (stereo not drawn)	0.27
COc1cccc(C(=O)NCc2ccccc2S(=O)(=O)N(C)C)c1	-4.93
CCC[C@@H]1CN(C(=O)c2cc3ccccc3cc2O)C[C@H]1N(C)C	28.4
Cn1nc(CNC(=O)C2CC2)cc1C1CC1	8.22
Cc1ccc(C(=O)N2CCC3(CC2)C(=O)NCCN3C)cc1O	-6.34
CCc1nc(Cn2c(=O)n(C)c3ccccc32)no1	-6.86

Structure (SMILES)	cytotoxicity at 70.5 h [%]
Cc1nccnc1C1CCN(C(=O)C(C)C)CC1	-5.9
Cc1nnc(C2CCN(C(=O)c3cnc4ccccc4n3)CC2)s1	-2.76
CCC(=O)N1CCCCC1c1nc(O)c2c(n1)CN(S(C)(=O)=O)CC2 (stereo not drawn)	12.1
CCOCCCn1c(NC(=O)c2cc(C)no2)nc2ccccc21	2.27
COCCN(CCOC)C(=O)c1cnn(C)c1C	-10.4
COc1nn(C)c2c1CCCN(C(=O)c1cccc(C)n1)C2	-2.8
CN(C)C(=O)C1OC2(CCN(c3ncc(F)cn3)CC2)c2ccccc21 (stereo not drawn)	3.5
CN(Cc1cscn1)C1CCCN(Cc2noc(C3CC3)n2)C1 (stereo not drawn)	22.4
CC(C)NC(=O)N1CCC2(COCc3cnc(-c4cccnc4)nc32)C1 (stereo not drawn)	-2.99
O=C(c1ccc(N2CCCC2)nn1)N1CCc2ccccc21	0.119
Cc1ccc(CN(C(=O)NCC2CCCO2)C2CC2)o1 (stereo not drawn)	-9.69
CNS(=O)(=O)CCCN(C)Cc1cc(C)ccc1OC	-13.2
CCC(C)c1noc(C2CCN(C(=O)c3cccs3)CC2)n1 (stereo not drawn)	-10.7
Cn1ccnc1CN1C[C@@H](CN2CCCCCC2)[C@@H](CO)C1	1.19
CCn1c(CN(C)C)nnc1C1CCN(c2ccnc(C)c2)CC1	-3.44
CN(C)S(=O)(=O)c1cccc(CNc2cc(CO)ccc2Cl)c1	-13.5
COCCN1CCN(C(=O)C2CC=CC2)Cc2cccnc21	-12
O=C(CC1CCCCC1)N1CCOCC1CO (stereo not drawn)	-14.9
c1cc2c(cc1-c1noc3c1CN(C1CCC1)CC3)OCO2	1.77
Cc1nc(C)n(CC2CCCN(CCC(=O)N3CCOCC3)C2)n1 (stereo not drawn)	-4.61
CN(C)C(=O)C1CCN(C2CCN(CC3CCC3)CC2)CC1	-1.7
